Structures are written as SMILES.

The test system of the first test is rabbit skeletal myofibrils (fast skeletal myofibrils). In words: Activation of fast skeletal myofibrils (PUMA assay, PK/LDH-coupled ATPase at pCa25). The test is classed as biochemical. The following applies: AC1.4 determined according to the procedure of Example 39; reported as class symbols. The gist of the method: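 Detergent-washed rabbit psoas myofibrils (~90% fast fibres, calcium-regulated) assayed at calcium giving 25% of maximal ATPase rate (pCa25). ADP turnover coupled via pyruvate kinase/lactate dehydrogenase to NADH oxidation, read at 340 nm. Buffer 12 mM PIPES, 2 mM MgCl2, 1 mM DTT, pH 6.8; AC1.4 values derived.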
As to `CC(=O)Nc1n[nH]c2ccc(-c3ccc(NCC(C)(C)c4ccc(F)cc4)nn3)cc12` [N-[5-(6-{[2-(4-fluorophenyl)-2-methylpropyl]amino}pyridazin-3-yl)-1H-indazol-3-yl]acetamide], the “Mean AC1.4” value is reported as “A (A=<1 uM)”.
On the same count and under the same terms, as for `CC(=O)Nc1ccc(-c2ccc(NCC(C)(C)c3ccc(F)cc3)nn2)cn1` [N-[5-(6-{[2-(4-fluorophenyl)-2-methylpropyl]amino}pyridazin-3-yl)-2-pyridyl]acetamide], the entry is “B (B=1-10 uM)”.
With `CC(=O)Nc1nc2cc(-c3ccc(NCC(C)(C)c4ccc(F)cc4)nn3)ccc2[nH]1` [N-[6-(6-{[2-(4-fluorophenyl)-2-methylpropyl]amino}pyridazin-3-yl)benzimidazol-2-yl]acetamide], the “Mean AC1.4” value is “A (A=<1 uM)”.
On the same count and under the same terms, as for `COC(=O)NCc1ccc(NCC(C)(C)c2ccc(F)cc2)nn1` [N-[(6-{[2-(4-fluorophenyl)-2-methylpropyl]amino}pyridazin-3-yl)methyl]methoxycarboxamide], the entry is “D (D=>20 uM)”.
Still for that read-out and setting: with `CC(C)(C)OC(=O)NCCCNC(=O)c1cccc(-c2ccc(NCC(C)(C)c3ccc(F)cc3)nn2)c1` [N-{3-[(tert-butoxy)carbonylamino]propyl}[3-(6-{[2-(4-fluorophenyl)-2-methylpropyl]amino}pyridazin-3-yl)phenyl]carboxamide] the entry was “B (B=1-10 uM)”.

The same test, now with this note: median AC1.4 reported as class; procedure of Example 39.
As to `NC(=O)Cc1nnc(NC(=O)c2ccc(NCC3(c4ncccc4F)CCC3)nn2)s1` [N-[5-(carbamoylmethyl)(1,3,4-thiadiazol-2-yl)][6-({[(3-fluoro(2-pyridyl))cyclobutyl]methyl}ami-no)pyridazin-3-yl]carboxamide], the “Mean AC1.4” value is listed as “D (D=>20 uM)”.
Still for that read-out and setting: with `O=C(NC1CNC1)c1cccc(-c2ccc(NC[C@]3(c4ncccc4F)C[C@H](F)C3)nn2)c1` [N-azetidin-3-yl{3-[6-({[3-fluoro-1-(3-fluoro(2-pyridyl))cyclobutyl]methyl}ami-no)pyridazin-3-yl]phenyl}carboxamide] the entry was “B (B=1-10 uM)”; with `O=C(NC1CCC1)c1ccc(F)c(-c2ccc(NC[C@]3(c4ncccc4F)C[C@H](F)C3)nn2)c1` [N-cyclobutyl{4-fluoro-3-[6-({[3-fluoro-1-(3-fluoro(2-pyridyl))cyclobutyl]methyl}ami-no)pyridazin-3-yl]phenyl}carboxamide], “A (A=<1 uM)”; with `O=C(NC1CC1)c1cccc(-c2ccc(NC[C@]3(c4ncccc4F)C[C@H](F)C3)nn2)c1` [N-cyclopropyl{3-[6-({[3-fluoro-1-(3-fluoro(2-pyridyl))cyclobutyl]methyl}ami-no)pyridazin-3-yl]phenyl}carboxamide], “B (B=1-10 uM)”.
The same measure, in the same setting: as for `O=C(NC1CC1)c1ccc(F)c(-c2ccc(NC[C@]3(c4ncccc4F)C[C@H](F)C3)nn2)c1` [N-cyclopropyl{4-fluoro-3-[6-({[3-fluoro-1-(3-fluoro(2-pyridyl))cyclobutyl]methyl}ami-no)pyridazin-3-yl]phenyl}carboxamide], the entry is “A (A=<1 uM)”.
Still for that read-out and setting: with `CCNC(=O)c1cc(-c2ccc(NC[C@]3(c4ncccc4F)C[C@H](F)C3)nn2)ccc1F` [N-ethyl{2-fluoro-5-[6-({[3-fluoro-1-(3-fluoro(2-pyridyl))cyclobutyl]methyl}ami-no)pyridazin-3-yl]phenyl}carboxamide] the entry was “C (C=10-20 uM)”; with `CCNC(=O)c1ccc(F)c(-c2ccc(NC[C@]3(c4ncccc4F)C[C@H](F)C3)nn2)c1` [N-ethyl{4-fluoro-3-[6-({[3-fluoro-1-(3-fluoro(2-pyridyl))cyclobutyl]methyl}ami-no)pyridazin-3-yl]phenyl}carboxamide], “B (B=1-10 uM)”.
Consider `COC(=O)NC1CCc2sc(-c3ccc(NCC4(c5ncccc5F)CCC4)nn3)nc21` (stereo not shown) [N-{2-[6-({[(3-fluoro(2-pyridyl))cyclobutyl]methyl}ami-no)pyridazin-3-yl](4,5,6-trihydrocyclopenta[2,3-d]1,3-thiazol-4-yl)}methoxycarboxamide], for which the “Mean AC1.4” value is “D (D=>20 uM)”.

Values taken from patent publication US10076519B2 (CYTOKINETICS, INC., priority 2010, dated 2018).
